In patent US20080249174A1, “Animal Model for Studying Atherosclerotic Lesions” (THE RESEARCH FOUNDATION OF STATE UNIVERSITY OF NEW YORK, priority 2005, published 2008):

Key:
[1] = tested on: CIP.choline-phosphate cytidylyltransferase (CT); settings: administration of L-cycloserine; cited from earlier work
[2] = molecular target: mouse Sptlc2 (serine palmitoyl-CoA transferase subunit 2) (mouse) (UniProt P97363); assay: cell-based or functional assay

Compound: N[C@@H]1CON=C1O [L-cycloserine]
- stimulation of CT activity [1]: 74%

Compound: mouse Sptlc1 (serine palmitoyl-CoA transferase subunit 1) (from UniProt O35704 1-473) (enzyme)
- decrease in Sptlc1 protein mass in Sptlc2+/- mouse liver against WT (Western blot of liver homogenate) [2]: 70%
